Square brackets hold non-standard residues; d marks the D form. Peptide text beside a SMILES is read from it. * marks the point of attachment. Dolaproine = CO[C@@H]([C@@H]1CCCN1)[C@@H](C)C(=O)O; Dil = CC[C@H](C)[C@H](NC)[C@@H](CC(=O)O)OC; X1 = C[C@@H](N*)[C@@H](O)c1ccccc1; NMeV = CN[C@H](C(=O)O)C(C)C
Assays:
Assay type in all cases: cell-based
A549, a NSCLC cell line = assay: Cytotoxicity testing of compounds (cell titer-Glo), second round; conditions: A549, second round (Table 2)
Protocol: (§1) HT-29 (colorectal cancer) and MDA-MB-468 (TNBC) cells were harvested and seeded with 3000 cell per well into 96-well cell culture plates respectively. They were then incubated at 37° C., 5% CO2 for overnight. Each compound was diluted 3-fold from 500 nM, and added to each well respectively. After 5 days, 30 μL cell titer-Glo Luminescent buffer was added to each well and the plate was incubated for 20 min at room temperature. Luminescence signal was detected by the Envison microplatereader.
(§2) In a second round of testing, C-2a and C-2b, along with 6 other compounds (C-1a, C-1b, C-3a, C-3b, C-5a, and C-4a) were tested with the same cell lines plus A549, a NSCLC cell line.

[1] = system: HT-29, MDA-MB-468 and A549 cells; assay: Cytotoxicity testing of compounds, text statements over the cell lines; conditions: first round; HT-29 and MDA-MB-468
Protocol: as §1, §2

MDA-MB-468 (TNBC) cells = assay: Cytotoxicity testing of compounds (cell titer-Glo)
Protocol: (§3) They were then incubated at 37° C., 5% CO2 for overnight. […] After 5 days, 30 μL cell titer-Glo Luminescent buffer was added to each well and the plate was incubated for 20 min at room temperature. Luminescence signal was detected by the Envison microplatereader.

[2] = system: HT-29 (colorectal cancer) cells; assay: Cytotoxicity testing of compounds (cell titer-Glo)
Protocol: as §3

[3] = Cytotoxicity testing of compounds (cell titer-Glo), second round; conditions: human
Protocol: as §1, §2

[4] = Cytotoxicity testing of compounds (cell titer-Glo); conditions: human, Min cell viability
Protocol: as §3

[5] = HT29, first round (Table 1), 5 days
[6] = Homo sapiens, 120 h, first round (Table 1), 5 days
[7] = Homo sapiens, second round (Table 2)
[8] = Homo sapiens, HT-29, 120 h, HT29, first round (Table 1), 5 days
[9] = Homo sapiens, HT-29, HT29, second round (Table 2)

SMILES	inhibition of cells proliferation [1]	IC50 (A549, a NSCLC cell line; Homo sapiens)	viability at 5 days [3]	IC50 (MDA-MB-468 (TNBC) cells; [7])	IC50 [2, 9]	other results
CC[C@@]1(O)C(=O)OCc2c1cc1n(c2=O)Cc2c-1nc1cc(F)c(C)c3c1c2[C@@H](NC(=O)CO)CC3 [DXD, reference compound]	inhibited cells proliferation in a concentration-dependent manner					IC50 (A549, a NSCLC cell line): 0.126 µM; Min cell viability (A549, a NSCLC cell line): 28.4; IC50 (MDA-MB-468 (TNBC) cells; first round (Table 1), 5 days): 0.0032 µM; Min cell viability (MDA-MB-468 (TNBC) cells; first round (Table 1), 5 days): 1.2; IC50 (MDA-MB-468 (TNBC) cells; second round (Table 2)): 0.0042 µM; Min cell viability (MDA-MB-468 (TNBC) cells; second round (Table 2)): 4.1; IC50 [2, 5]: 0.0252 µM; Min cell viability [2, 5]: 4.0; IC50 ([2]; HT29, second round (Table 2)): 0.105 µM; Min cell viability ([2]; HT29, second round (Table 2)): 11.4
CCc1c(F)cc2nc3c(c4c2c1CC[C@@H]4N)Cn1c-3cc2c(c1=O)COC(=O)[C@]2(O)CC [Compound C-2b]	inhibited cells proliferation in a concentration-dependent manner	0.0242 µM	23.6%	0.0052 µM	~0.0527 µM	IC50 (MDA-MB-468 (TNBC) cells; [6]): 0.001 µM; viability at 5 days [4]: 1.9%; IC50 [2, 8]: 0.0056 µM; Min cell viability ([2]; human, 5 days): 3.7
CC[C@@]1(O)C(=O)OCc2c1cc1n(c2=O)Cc2c-1nc1cc(F)c(C(C)C)c3c1c2[C@@H](N)CC3 [Compound C-3b]		0.114 µM	30.6%	0.0176 µM		
CC[C@@]1(O)C(=O)OCc2c1cc1n(c2=O)Cc2c-1nc1cc(F)c(C(C)C)c3c1c2[C@H](N)CC3 [Compound C-3a]		0.0366 µM	23.8%	0.0088 µM	0.0766 µM	
CC[C@@]1(O)C(=O)OCc2c1cc1n(c2=O)Cc2c-1nc1cc(F)c(C)c3c1c2CC[C@H]3N [Compound C-1b]		0.0137 µM	14.5%	0.0031 µM	0.0185 µM	
CC[C@H](C)[C@@H]([C@@H](CC(=O)N1CCC[C@H]1[C@H](OC)[C@@H](C)C(=O)N[C@H](C)[C@@H](O)c1ccccc1)OC)N(C)C(=O)[C@@H](NC(=O)[C@@H](NC)C(C)C)C(C)C [MMAE, reference compound] (H-[NMeV]V[Dil][Dolaproine]-X1)	inhibited cells proliferation in a concentration-dependent manner					IC50 (A549, a NSCLC cell line): 0.002 µM; IC50 (MDA-MB-468 (TNBC) cells; first round (Table 1), 5 days): 0.0001 µM; Min cell viability (MDA-MB-468 (TNBC) cells; first round (Table 1), 5 days): 4.6; IC50 (MDA-MB-468 (TNBC) cells; second round (Table 2)): 0.0003 µM; Min cell viability (MDA-MB-468 (TNBC) cells; second round (Table 2)): 6.3; IC50 [2, 5]: ~0.0005 µM; Min cell viability [2, 5]: 21.3; IC50 ([2]; HT29, second round (Table 2)): 0.0011 µM; Min cell viability ([2]; HT29, second round (Table 2)): 35.5
CC[C@@]1(O)C(=O)OCc2c1cc1n(c2=O)Cc2c-1nc1cc(F)c(C)c3c1c2CC[C@@H]3N [Compound C-1a]		0.0166 µM	20.3%	0.0036 µM	0.0211 µM	
CCc1c(F)cc2nc3c(c4c2c1CC[C@H]4N)Cn1c-3cc2c(c1=O)COC(=O)[C@]2(O)CC [Compound C-2a]	inhibited cells proliferation in a concentration-dependent manner	0.0189 µM	19.7%	0.0056 µM	0.0401 µM	IC50 (MDA-MB-468 (TNBC) cells; [6]): 0.0016 µM; viability at 5 days [4]: 4.6%; IC50 [2, 8]: 0.0057 µM; Min cell viability ([2]; human, 5 days): 4.8
CC[C@@]1(O)C(=O)OCc2c1cc1n(c2=O)Cc2c-1nc1cc(F)c(C)c3c1c2CC(N)C3 (mixture of isomers) [Compound C-5a]		0.022 µM	19.4%	0.0024 µM	0.0266 µM	
CC[C@@]1(O)C(=O)OCc2c1cc1n(c2=O)Cc2c-1nc1cc(F)c(C)c3c1c2[C@H](Nc1cccc(CN)c1)CC3 [Compound C-4a]			83%	0.115 µM		

— US12291537B2, “Compounds, compositions and methods” (priority 2022, dated 2025)
